Assay results: ChEMBL document CHEMBL1909046, “DrugMatrix in vitro pharmacology data”

Experiments:
Calcitonin receptor = biological target: T1, Calcitonin receptor (Homo sapiens, UniProt P30988); format: cell membranes, Membrane; conditions: t47d; note: in other assays of this panel Not Active means under 50% inhibition at 10 µM
T1 sequence (P30988 whole entry): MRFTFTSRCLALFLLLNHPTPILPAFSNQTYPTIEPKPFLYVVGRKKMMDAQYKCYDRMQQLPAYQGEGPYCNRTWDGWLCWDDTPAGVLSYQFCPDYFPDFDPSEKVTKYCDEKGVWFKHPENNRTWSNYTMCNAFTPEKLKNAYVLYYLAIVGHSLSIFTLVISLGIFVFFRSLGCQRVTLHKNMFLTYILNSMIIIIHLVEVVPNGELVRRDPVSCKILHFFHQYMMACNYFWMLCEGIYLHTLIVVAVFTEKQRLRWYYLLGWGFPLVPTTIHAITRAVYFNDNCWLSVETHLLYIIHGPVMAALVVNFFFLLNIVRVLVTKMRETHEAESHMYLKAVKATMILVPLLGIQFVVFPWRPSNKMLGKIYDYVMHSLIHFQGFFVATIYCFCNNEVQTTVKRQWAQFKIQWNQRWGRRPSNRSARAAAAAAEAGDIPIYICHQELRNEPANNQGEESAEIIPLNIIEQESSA

D(4) dopamine receptor = biological target: T2, D(4) dopamine receptor (Homo sapiens, UniProt P21917); test: DRUGMATRIX: Dopamine D4.2 radioligand binding (ligand: [3H] Spiperone); format: cell membranes, CHO-K1, Membrane; conditions: cho-k1; Not Active = under 50% inhibition at 10 µM
T2 sequence (P21917 whole entry): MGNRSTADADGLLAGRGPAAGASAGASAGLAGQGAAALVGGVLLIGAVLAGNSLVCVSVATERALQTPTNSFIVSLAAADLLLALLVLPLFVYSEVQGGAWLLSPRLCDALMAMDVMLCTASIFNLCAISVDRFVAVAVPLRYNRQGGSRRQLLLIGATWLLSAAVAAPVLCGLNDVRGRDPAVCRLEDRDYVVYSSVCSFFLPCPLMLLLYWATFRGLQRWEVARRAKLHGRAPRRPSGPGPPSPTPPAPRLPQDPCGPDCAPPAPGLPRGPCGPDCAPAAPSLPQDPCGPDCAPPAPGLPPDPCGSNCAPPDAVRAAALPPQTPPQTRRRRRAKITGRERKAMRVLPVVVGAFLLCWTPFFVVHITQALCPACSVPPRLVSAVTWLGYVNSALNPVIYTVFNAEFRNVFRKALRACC

[1] = DRUGMATRIX: GABAA, Chloride Channel, TBOB radioligand binding (ligand: [3H] TBOB); format: cell membranes, Rattus norvegicus, Wistar, Cerebral cortex, Membrane; conditions: Not Active = under 50% inhibition at 10 µM
[2] = biological target: T3, Muscarinic acetylcholine receptor M5 (Homo sapiens, UniProt P08912); format: cell membranes, CHO-K1, Membrane; conditions: cho-k1; note: in other assays of this panel Not Active means under 50% inhibition at 10 µM
T3 sequence (P08912 whole entry): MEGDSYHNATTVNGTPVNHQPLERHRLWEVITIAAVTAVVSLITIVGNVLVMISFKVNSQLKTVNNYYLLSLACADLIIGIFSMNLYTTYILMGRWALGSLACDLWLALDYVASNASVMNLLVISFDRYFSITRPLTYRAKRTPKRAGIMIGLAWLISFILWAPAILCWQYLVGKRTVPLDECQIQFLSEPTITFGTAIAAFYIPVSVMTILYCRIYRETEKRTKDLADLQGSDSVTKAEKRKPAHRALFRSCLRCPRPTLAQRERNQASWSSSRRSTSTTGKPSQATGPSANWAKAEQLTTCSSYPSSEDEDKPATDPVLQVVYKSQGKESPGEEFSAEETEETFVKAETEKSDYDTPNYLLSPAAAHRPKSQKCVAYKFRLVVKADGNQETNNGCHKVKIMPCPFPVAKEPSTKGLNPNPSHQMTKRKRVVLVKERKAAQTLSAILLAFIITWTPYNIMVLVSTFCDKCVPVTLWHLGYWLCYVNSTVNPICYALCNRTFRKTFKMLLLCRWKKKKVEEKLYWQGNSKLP

[3] = DRUGMATRIX: Platelet-Derived Growth Factor (PDGF) radioligand binding (ligand: [125I] PDGF); format: cell-based; conditions: nih3t3; Not Active = under 50% inhibition at 10 µM
Caspase-1 = biological target: T4, Caspase-1 (Homo sapiens, UniProt P29466); design: species or system Escherichia coli;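 note: Caspase-1 enzyme inhibition assay with a peptide substrate; in other assays of this panel Not Active means under 50% inhibition at 10 µM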
T4 sequence (P29466 whole entry): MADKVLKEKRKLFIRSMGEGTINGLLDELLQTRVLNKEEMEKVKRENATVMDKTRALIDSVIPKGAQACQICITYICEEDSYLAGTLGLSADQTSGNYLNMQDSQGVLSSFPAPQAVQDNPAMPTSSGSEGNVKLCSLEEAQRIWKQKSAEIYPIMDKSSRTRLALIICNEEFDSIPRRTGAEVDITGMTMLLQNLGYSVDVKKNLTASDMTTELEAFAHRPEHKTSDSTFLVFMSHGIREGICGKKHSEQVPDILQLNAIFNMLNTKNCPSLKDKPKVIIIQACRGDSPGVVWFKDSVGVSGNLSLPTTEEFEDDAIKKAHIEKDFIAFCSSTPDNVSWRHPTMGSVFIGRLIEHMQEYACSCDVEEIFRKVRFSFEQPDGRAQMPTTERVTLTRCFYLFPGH

[4] = biological target: Protein phosphatase 3 catalytic subunit alpha (Homo sapiens, UniProt Q08209); design: species or system Escherichia coli;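 note: inhibition of calcineurin (PP2B) enzyme activity, measured with DiFMUP as the substrate; in other assays of this panel Not Active means under 50% inhibition at 10 µM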
Estrogen receptor = biological target: T5, Estrogen receptor (Homo sapiens, UniProt P03372); conditions: sf9; note: in other assays of this panel Not Active means under 50% inhibition at 10 µM
T5 sequence (P03372 whole entry): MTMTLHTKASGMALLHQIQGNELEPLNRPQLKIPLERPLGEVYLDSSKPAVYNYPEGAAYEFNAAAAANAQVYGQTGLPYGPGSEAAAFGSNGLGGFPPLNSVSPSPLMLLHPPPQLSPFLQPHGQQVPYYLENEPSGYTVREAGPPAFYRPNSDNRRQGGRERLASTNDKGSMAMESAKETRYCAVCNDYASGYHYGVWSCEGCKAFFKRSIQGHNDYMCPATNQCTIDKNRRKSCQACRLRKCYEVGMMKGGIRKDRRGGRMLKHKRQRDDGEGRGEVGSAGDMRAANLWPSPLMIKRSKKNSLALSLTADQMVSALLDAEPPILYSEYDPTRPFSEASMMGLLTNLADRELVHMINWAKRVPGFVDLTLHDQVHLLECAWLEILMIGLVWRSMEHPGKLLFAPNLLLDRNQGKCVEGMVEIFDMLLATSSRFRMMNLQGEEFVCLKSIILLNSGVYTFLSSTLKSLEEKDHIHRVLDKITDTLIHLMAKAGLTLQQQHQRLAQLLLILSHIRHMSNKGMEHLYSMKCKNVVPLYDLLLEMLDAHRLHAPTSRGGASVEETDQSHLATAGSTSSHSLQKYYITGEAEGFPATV

CN(CCOc1ccc(C[C@H](Nc2ccccc2C(=O)c2ccccc2)C(=O)O)cc1)c1ccccn1
Not Active: IC50 (Calcitonin receptor) | IC50 (D(4) dopamine receptor) | IC50 [1] | Ki [1] | IC50 [2] | IC50 [3] | Ki [3] | IC50 (Caspase-1) | IC50 [4] | IC50 (Estrogen receptor)

COPPER(II) OXIDE
Not Active: IC50 (Calcitonin receptor) | Ki (Calcitonin receptor) | IC50 (D(4) dopamine receptor) | Ki (D(4) dopamine receptor) | IC50 [1] | Ki [1] | IC50 [2] | Ki [2] | IC50 [3] | Ki [3] | IC50 (Caspase-1) | Ki (Caspase-1) | IC50 [4] | Ki [4] | IC50 (Estrogen receptor) | Ki (Estrogen receptor)

Cl.NC[C@H]1CC[C@H](C(=O)Oc2ccc(CCC(=O)O)cc2)CC1 [CETRAXATE HYDROCHLORIDE]
Not Active: IC50 (Calcitonin receptor) | IC50 (D(4) dopamine receptor) | IC50 [1] | Ki [1] | IC50 [2] | IC50 [3] | Ki [3] | IC50 (Caspase-1) | IC50 [4] | IC50 (Estrogen receptor)

COc1ccccc1OCCNCC(O)COc1cccc2[nH]c3ccccc3c12 (stereo unspecified) [CARVEDILOL]
Not Active: IC50 (Calcitonin receptor) | IC50 (D(4) dopamine receptor) | IC50 [1] | Ki [1] | IC50 [2] | IC50 [3] | Ki [3] | IC50 (Caspase-1) | IC50 [4] | IC50 (Estrogen receptor)

C[C@H](C(=O)O)c1ccc2oc(-c3ccc(F)cc3)nc2c1 [FLUNOXAPROFEN]
Not Active: IC50 (Calcitonin receptor) | IC50 (D(4) dopamine receptor) | IC50 [1] | Ki [1] | IC50 [2] | IC50 [3] | Ki [3] | IC50 (Caspase-1) | IC50 [4] | IC50 (Estrogen receptor)

CCO [ALCOHOL]
Not Active: IC50 (Calcitonin receptor) | IC50 (D(4) dopamine receptor) | IC50 [1] | Ki [1] | IC50 [2] | IC50 [3] | Ki [3] | IC50 (Caspase-1) | IC50 [4] | IC50 (Estrogen receptor)

NC(N)=Nc1nc(CSCCC(N)=NS(N)(=O)=O)cs1 [FAMOTIDINE]
Not Active: IC50 (Calcitonin receptor) | IC50 (D(4) dopamine receptor) | IC50 [1] | Ki [1] | IC50 [2] | IC50 [3] | Ki [3] | IC50 (Caspase-1) | IC50 [4] | IC50 (Estrogen receptor)

COc1cc(NC(C)CCCN)c2ncccc2c1 (stereo unspecified) [PRIMAQUINE]
Not Active: IC50 (Calcitonin receptor) | IC50 (D(4) dopamine receptor) | IC50 [1] | Ki [1] | IC50 [2] | IC50 [3] | Ki [3] | IC50 (Caspase-1) | IC50 [4] | IC50 (Estrogen receptor)

Cc1c(N)nc([C@H](CC(N)=O)NC[C@H](N)C(N)=O)nc1C(=O)N[C@H](C(=O)N[C@H](C)[C@@H](O)[C@H](C)C(=O)N[C@H](C(=O)NCCc1nc(-c2nc(C(=O)NCCC[S+](C)C)cs2)cs1)[C@@H](C)O)[C@@H](O[C@@H]1O[C@@H](CO)[C@@H](O)[C@H](O)[C@@H]1O[C@H]1O[C@H](CO)[C@@H](O)[C@H](OC(N)=O)[C@@H]1O)c1c[nH]cn1.[Br-] [BLEOMYCIN A2]
Not Active: IC50 (Calcitonin receptor) | IC50 (D(4) dopamine receptor) | IC50 [1] | Ki [1] | IC50 [2] | IC50 [3] | Ki [3] | IC50 (Caspase-1) | IC50 [4] | IC50 (Estrogen receptor)

O=C(O)CNCP(=O)(O)O [GLYPHOSATE]
Not Active: IC50 (Calcitonin receptor) | IC50 (D(4) dopamine receptor) | IC50 [1] | Ki [1] | IC50 [2] | IC50 [3] | Ki [3] | IC50 (Caspase-1) | IC50 [4] | IC50 (Estrogen receptor)

c1ccc2c(c1)Nc1ccccc1S2 [PHENOTHIAZINE]
Not Active: IC50 (Calcitonin receptor) | IC50 (D(4) dopamine receptor) | IC50 [1] | Ki [1] | IC50 [2] | IC50 [3] | Ki [3] | IC50 (Caspase-1) | IC50 [4] | IC50 (Estrogen receptor)

OC[C@H]1OC2C3[C@@H](CO)OC(O[C@H]4[C@H](O)[C@@H](O)[C@@H](O[C@H]5[C@H](O)[C@@H](O)[C@@H](O[C@H]6[C@H](O)[C@@H](O)[C@@H](O[C@H]7[C@H](O)[C@@H](O)[C@@H](O[C@H]8[C@H](O)[C@@H](O)[C@@H](O[C@H]9[C@H](O)[C@@H](O)C(OC1[C@H](O)[C@H]2O)O[C@@H]9CO)O[C@@H]8CO)O[C@@H]7CO)O[C@@H]6CO)O[C@@H]5CO)O[C@@H]4CO)[C@H](O)[C@H]3O
Not Active: IC50 (Calcitonin receptor) | IC50 (D(4) dopamine receptor) | IC50 [1] | Ki [1] | IC50 [2] | IC50 [3] | Ki [3] | IC50 (Caspase-1) | IC50 [4] | IC50 (Estrogen receptor)

CC(C)Cc1ccc([C@H](C)C(=O)O)cc1 [DEXIBUPROFEN]
Not Active: IC50 (Calcitonin receptor) | IC50 (D(4) dopamine receptor) | IC50 [1] | Ki [1] | IC50 [2] | IC50 [3] | Ki [3] | IC50 (Caspase-1) | IC50 [4] | IC50 (Estrogen receptor)

CC(N)Cc1c[nH]c2ccc(OCc3cccs3)cc12 (stereo unspecified) [BW-723C86]
Not Active: IC50 (Calcitonin receptor) | IC50 (D(4) dopamine receptor) | IC50 [1] | Ki [1] | IC50 [2] | IC50 [3] | Ki [3] | IC50 (Caspase-1) | IC50 [4] | IC50 (Estrogen receptor)

CC(=O)[C@]1(O)Cc2c(O)c3c(c(O)c2[C@@H](O[C@H]2C[C@H](N)[C@H](O)[C@H](C)O2)C1)C(=O)c1ccccc1C3=O [IDARUBICIN]
Not Active: IC50 (Calcitonin receptor) | IC50 (D(4) dopamine receptor) | IC50 [1] | Ki [1] | IC50 [2] | IC50 [3] | Ki [3] | IC50 (Caspase-1) | IC50 [4] | IC50 (Estrogen receptor)
